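96-well plates; 48 h exposure; 5 concentrations. Endpoints by linear interpolation between flanking doses. Not reached: highest tested concentration assigned. At the GI50, growth is halved.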 Calls of active or inactive are those of the source. No stated cut-off is given here; in the data, active = GI50 up to about 1.1 µM and inactive = higher. Non-standard residues stand in square brackets, D forms with d. Residues, ends and D or L forms follow the SMILES beside them. ξ: configuration not given here. *: point of attachment. Cbz = O=C(OCc1ccccc1)*; ξK = NCCCCC(N)C(=O)O
Key:
Assay in all cases: DTP human tumour cell line panel, 48 h
[1] = system: Hs-578T
[2] = system: LOX IMVI
[3] = system: SR
[4] = system: SNB-19
[5] = system: CAKI-1
[6] = system: ACHN
[7] = system: HOP-92
[8] = system: IGROV-1
[9] = system: MDA-N
[10] = system: RXF 393
[11] = system: HOP-62
[12] = system: TK-10
[13] = system: COLO 205
[14] = system: A549
[15] = system: NCI-H23
[16] = system: UO-31
[17] = system: SF-539
[18] = system: DU-145
[19] = system: HCT-15
[20] = system: HL-60

With COc1ccc(NCc2cnc3nc(N)nc(N)c3c2C)cc1 the GI50 [1] was 59.8 µM (inactive), the GI50 [2] was 0.316 µM (active) and the GI50 [3] was 0.449 µM (active). For the same compound, the GI50 [4] was 21 µM (inactive), the GI50 [5] was 6.55 µM (inactive) and the GI50 [6] was 0.56 µM (active). For the same compound, the GI50 [7] was 5.93 µM (inactive), the GI50 [8] was 0.771 µM (active) and the GI50 [9] was 0.174 µM (active). For the same compound, the GI50 [10] was 43.5 µM (inactive), the GI50 [11] was 1.16 µM (inactive) and the GI50 [12] was 41.4 µM (inactive). For the same compound, the GI50 [13] was 9.35 µM (inactive), the GI50 [14] was 0.303 µM (active) and the GI50 [15] was 0.628 µM (active). The GI50 [16] was > 49.8 µM (inactive), the GI50 [17] was 0.7 µM (active) and the GI50 [18] was 0.718 µM (active). For the same compound, the GI50 [19] was 0.443 µM.

For OCCCCCCCCCCCOc1ccc(C2OCC3(CC=CCC3)CO2)cc1 (configuration not stated), the GI50 [1] was 7.87 µM (inactive), the GI50 [2] was 11.7 µM (inactive) and the GI50 [3] was 0.43 µM (active). The GI50 [4] was 19.9 µM (inactive), the GI50 [5] was 17.4 µM (inactive) and the GI50 [6] was 17.5 µM (inactive). For the same compound, the GI50 [7] was 16.9 µM (inactive), the GI50 [20] was 7.29 µM (inactive) and the GI50 [8] was 16.1 µM (inactive). For the same compound, the GI50 [9] was 15.9 µM (inactive), the GI50 [11] was 14.4 µM (inactive) and the GI50 [12] was 16.9 µM (inactive). The GI50 [13] was 22 µM (inactive), the GI50 [14] was 17.1 µM (inactive) and the GI50 [15] was 16.4 µM (inactive). For the same compound, the GI50 [16] was 17.5 µM (inactive), the GI50 [17] was 19.1 µM (inactive) and the GI50 [18] was 16.2 µM (inactive). For the same compound, the GI50 [19] was 15.2 µM.

In the case of NC(=O)C1=NNc2ccccc2C(=O)N1c1ccccc1, the GI50 [1] is reported as > 100 µM (inactive), the GI50 [2] is reported as > 100 µM (inactive) and the GI50 [3] is reported as > 100 µM (inactive). For the same compound, the GI50 [4] was > 100 µM (inactive), the GI50 [5] was > 100 µM (inactive) and the GI50 [6] was > 100 µM (inactive). The GI50 [7] was > 10 µM (inactive), the GI50 [8] was > 100 µM (inactive) and the GI50 [9] was > 100 µM (inactive). For the same compound, the GI50 [10] was > 100 µM (inactive), the GI50 [11] was > 100 µM (inactive) and the GI50 [12] was > 100 µM (inactive). The GI50 [13] was > 100 µM (inactive), the GI50 [14] was > 100 µM (inactive) and the GI50 [16] was > 100 µM (inactive). For the same compound, the GI50 [17] was > 100 µM (inactive), the GI50 [18] was > 100 µM (inactive) and the GI50 [19] was > 100 µM.

In the case of CNc1ccc([S+]([O-])Nc2ccc(OC)cc2)cc1 (configuration not stated), the GI50 [1] is reported as > 100 µM (inactive), the GI50 [2] is reported as 7.38 µM (inactive) and the GI50 [3] is reported as > 100 µM (inactive). For the same compound, the GI50 [4] was > 100 µM (inactive), the GI50 [5] was 65.5 µM (inactive) and the GI50 [6] was 32.3 µM (inactive). The GI50 [7] was > 100 µM (inactive), the GI50 [20] was 54.6 µM (inactive) and the GI50 [8] was 11.4 µM (inactive). The GI50 [9] was > 100 µM (inactive), the GI50 [11] was > 100 µM (inactive) and the GI50 [12] was > 100 µM (inactive). For the same compound, the GI50 [13] was 29.2 µM (inactive), the GI50 [14] was 66.2 µM (inactive) and the GI50 [15] was > 100 µM (inactive). For the same compound, the GI50 [16] was 7 µM (inactive), the GI50 [17] was 33.2 µM (inactive) and the GI50 [18] was 39.5 µM (inactive). For the same compound, the GI50 [19] was > 100 µM.

For C/C(=N\NC(=S)Nc1ccc([N+](=O)[O-])cc1)c1nc2cccnc2[nH]1, the GI50 [1] was 1.27 µM (inactive), the GI50 [2] was 0.442 µM (active) and the GI50 [3] was 0.388 µM (active). The GI50 [4] was 0.824 µM (active), the GI50 [5] was 1 µM (active) and the GI50 [6] was 0.378 µM (active). The GI50 [7] was 1.51 µM (inactive), the GI50 [20] was 0.652 µM (active) and the GI50 [8] was 0.942 µM (active). For the same compound, the GI50 [9] was 1.78 µM (inactive), the GI50 [11] was 1.07 µM (active) and the GI50 [12] was 0.327 µM (active). For the same compound, the GI50 [13] was 2.44 µM (inactive), the GI50 [14] was 0.783 µM (active) and the GI50 [15] was 0.713 µM (active). For the same compound, the GI50 [16] was 0.322 µM (active), the GI50 [17] was 0.288 µM (active) and the GI50 [18] was 1.21 µM (inactive). For the same compound, the GI50 [19] was 0.617 µM.

NCCCCC(NC(=O)OCc1ccccc1)C(=O)NCC(N)=O (configuration not stated) (Cbz-[ξK]-Gly-NH2) was tested, and the GI50 [1] was > 100 µM (inactive), the GI50 [2] was > 100 µM (inactive) and the GI50 [3] was > 100 µM (inactive). For the same compound, the GI50 [4] was > 100 µM (inactive), the GI50 [5] was > 100 µM (inactive) and the GI50 [6] was > 100 µM (inactive). For the same compound, the GI50 [7] was > 100 µM (inactive), the GI50 [8] was > 100 µM (inactive) and the GI50 [9] was > 100 µM (inactive). The GI50 [10] was > 100 µM (inactive), the GI50 [11] was > 100 µM (inactive) and the GI50 [13] was > 100 µM (inactive). For the same compound, the GI50 [14] was > 100 µM (inactive), the GI50 [15] was > 100 µM (inactive) and the GI50 [16] was > 100 µM (inactive). For the same compound, the GI50 [17] was > 100 µM (inactive), the GI50 [18] was > 100 µM (inactive) and the GI50 [19] was > 100 µM.

Reference: ChEMBL document CHEMBL1201862, “PubChem BioAssay data set” (2004)
